≈ marks a conversion by molar mass, not a printed value. Entries after “also recorded” stand apart in the source; their conditions may differ. Read-outs that look alike come from different tables or passages of the source. Marks after values point to notes of the source that are not given here.
Experiments:
[1] = Oxidative metabolic lability in human liver microsomes; conditions: 5 μM, 1 mg/mL microsomal protein, 20 min
Procedure: (§2) Microsomal fractions were prepared in the Drug Disposition Domain at DSAR Montpellier (371 rue du Pr. J. Blayac, 34184 Montpellier Cedex 04, France). […] The flavin-containing monooxygenases (FMO)-dependent reactions were run in the presence of bovine serum albumin (BSA, 0.1%) for the duration of 0 and 20 min (with or without microsomal proteins and/or cofactors). […] Following protein precipitation with acetonitrile and their removal by centrifugation, supernatant fluids were analyzed by LC/MS-MS.
(§3) Thermo Finnigan TSQ Quantum Ultra instrument, ESI positive ion ionization mode. Each compound is studied in duplicates. Results are expressed in percentage of lability (or total metabolism). Total metabolism=[1−(UC_Peak Area+Cofactor at T20)/(UC_Peak Area Reference at T0)]×100
(§4) The reactions were prepared as described and were run in the presence of bovine scrum albumin (BSA, 0.1%) for the duration of 0 and 20 min (with or without microsomal proteins and/or cofactors). Enzyme activity was stopped, the protein was precipitated and removed by centrifugation. The supernatant fluids were analyzed by LC/MS-MS. […] A Thermo Finnigan TSQ Quantum Ultra instrument, ESI positive ion ionization mode was used for MS/MS. Each compound was studied in duplicates. Results are expressed in percentage of lability (or total metabolism) using the following formula: Total metabolism=[1−(UC_Peak Area+Cofactor at T20)/(UC_Peak Area Reference at T0)]×100 where UC=Unchanged Compound; “Reference” sample was NADPH for liver microsomal preparation.

Vero cells = experiment: Cytotoxicity assay (resazurin, 72 h); type: cell-based
Procedure: The cytotoxicity assay was performed as described previously^16. Briefly compounds were serially diluted in 96 well plates.

M. tuberculosis W210 = experiment: microbe, parasite or virus in culture; type: cell-based, Mycobacterium tuberculosis
M. tuberculosis H37Rv [2] = experiment: Growth inhibition / time dose curves (OD600 and CFU); type: cell-based, Mycobacterium tuberculosis; conditions: 1×MIC, day 2
M. tuberculosis Erdman = type: in vivo; conditions: 50 mg/kg b.i.d. (Inh q.d.); for Log10CFU Lungs / Log10CFU Spleen: day 15
M. tuberculosis = experiment: Benzimidazoles activity tested in animals (animal models of infection, Table A); type: in vivo, mouse; conditions: Table A
Procedure: (§1) Further analysis using the methods described herein was performed on the compounds found in Tables A and B (bold font compounds are shown in FIG. 11) resulting in the data found therein.
Compound efficacy was assessed in two murine models of infection based on the short term model described previously (Lenaerts et al., Antimicrob. Agents Chemother. 2003; 47:783-785). All aerosol infections were performed using a Middlebrook aerosol generation devise (Glas-Col, Terre Haute, Ind.).

M. tuberculosis TN587 = experiment: microbe, parasite or virus in culture; type: cell-based, Mycobacterium tuberculosis
[3] = Oxidative metabolic lability in mouse liver microsomes; conditions: 5 μM, 1 mg/mL microsomal protein, 20 min
Procedure: as §2, §3, §4

M. tuberculosis NHN20 = experiment: microbe, parasite or virus in culture; type: cell-based, Mycobacterium tuberculosis
M. tuberculosis NHN382 = experiment: microbe, parasite or virus in culture; type: cell-based, Mycobacterium tuberculosis
[4] = system: Mycobacteria tuberculosis; experiment: MIC and drug response curve type (Tables A and B); type: cell-based, Mycobacterium tuberculosis; conditions: for Curve: drug response curve type; for MIC: in µg/mL
Procedure: A drug concentration response curve can be generated by graphing the log10 drug concentrations (μg/mL) against the difference in growth between the drug-treated wells and control wells. See FIG. 3C, and FIG. 5 (entries for SB-P23D8 and SB-P26D9). A NREBA is indicative of bacteriostatic activity above the MIC.
as §1
MIC values were determined for the benzimidazoles using a modified 96-well microplate Alamar Blue (resazurin) assay (MABA) (see Kumar et al., J. Med. Chem. 2011; 54:374-381; Collins and Franzblau, Antimicrob. Agents Chemother. 1997; 41:1004-1009). Dose response curves were generated from the MABA assay for compounds by graphing the log10 drug concentrations against the difference in growth between the drug-treated wells and control wells using GraphPad Prism Version 5.0d for Mac OS X (GraphPad Software, San Diego Calif., USA, www.graphpad.com). For time dose studies, bacterial growth in the presence of compound was monitored by the O.D. 600 nm. […] The values were plotted against time using GraphPad Prism Version 5.0d for Mac OS X (GraphPad Software, San Diego Calif., USA, www.graphpad.com).

M. tuberculosis H37Rv [5] = experiment: MIC / dose response by modified microplate Alamar Blue assay (MABA); type: cell-based, Mycobacterium tuberculosis; conditions: H37Rv

## CN(C)c1cc2[nH]c(C3CCCCC3)nc2cc1NC(=O)c1ccc(OC(F)(F)F)c(F)c1F [SB-P17G-A33]
[1]
  Liver Microsome Lability Human: 5%
Vero cells; 72 h
  Vero Cells (cytotoxicity IC50): >200 µg/mL
Vero cells; at 200 μg/mL
  cytotoxicity in Vero cells: not cytotoxic; also recorded: non-toxic
M. tuberculosis W210
  MIC: 0.47 ± 0.22 µg/mL (≈ 0.974 µM)
M. tuberculosis H37Rv [2]
  reduction in number of viable bacteria: 0.8-1.7 Log10 CFU
M. tuberculosis Erdman; IP
  Δ Lungs (difference between means of Test and Control Groups): −2.10** Log10 CFU
  Δ Spleen (difference between means of Test and Control Groups): −3.36*** Log10 CFU
  Log10CFU Lungs: 4.59 ± 0.71 Log10 CFU
  Log10CFU Spleen: 1.60 ± .0 Log10 CFU
M. tuberculosis Erdman; PO
  Δ Lungs (difference between means of Test and Control Groups): −1.72*** Log10 CFU
  Δ Spleen (difference between means of Test and Control Groups): −2.49*** Log10 CFU
  Log10CFU Lungs: 4.58 ± 0.21 Log10 CFU
  Log10CFU Spleen: 1.40 ± 1.24 Log10 CFU
M. tuberculosis
  Efficacy Lung: Yes
  Efficacy Spleen: Yes
M. tuberculosis TN587
  MIC: 0.31 ± 0 µg/mL (≈ 0.643 µM)
[3]
  Liver Microsome Lability Mouse: 17%
M. tuberculosis NHN20
  MIC: 0.39 ± 0.33 µg/mL (≈ 0.808 µM)
M. tuberculosis NHN382
  MIC: 0.37 ± 0.24 µg/mL (≈ 0.767 µM)
[4]; Table A
  Curve: Sigmoid
  MIC: .5-.625
M. tuberculosis H37Rv [5]
  MIC: 0.39 ± 0.16 µg/mL (≈ 0.808 µM)

## CN(C)c1cc2[nH]c(C3CCCCC3)nc2cc1NC(=O)OCc1ccccc1 [SB-P17G-C4]
[4]; Table B
  Curve: Zonal
  MIC: 12.5

## COc1ccc(C(=O)Nc2cc3nc(C4CCCCC4)[nH]c3cc2Oc2ccc(F)cc2)cc1 [SB-P23D8]
[4]; Table B
  Curve: Zonal
  MIC: 3.13

## Cc1ccc(C(=O)Nc2cc3nc(C4CCCCC4)[nH]c3cc2Oc2ccc(F)cc2)cc1 [SB-P26D9]
[4]; Table B
  Curve: Zonal
  MIC: 1.56

## CC(C)(C)c1ccc(C(=O)Nc2cc3nc(C4CCCCC4)[nH]c3cc2Sc2ccccc2)cc1 [SB-P26F8]
[4]; Table B
  Curve: Zonal
  MIC: 25

## Cc1ccc(C(=O)Nc2cc3nc(C4CCCCC4)[nH]c3cc2Sc2ccccc2)cc1 [SB-P26F9]
[4]; Table B
  Curve: Zonal
  MIC: 6.25

## CC(C)(C)c1ccc(C(=O)Nc2cc3nc(C4CCCCC4)[nH]c3cc2SCc2ccccc2)cc1 [SB-P26H8]
[4]; Table B
  Curve: Zonal
  MIC: 25

## Cc1ccc(C(=O)Nc2cc3nc(Cc4ccccc4)[nH]c3cc2N(C)C)cc1 [SB-P27A9]
[4]; Table B
  Curve: Zonal
  MIC: 12.5

## CCC(CC)c1nc2cc(NC(=O)c3ccccc3OC)c(N(C)C)cc2[nH]1 [SB-P27C7]
[4]; Table B
  Curve: Zonal
  MIC: 6.25

## CCCN(CCC)c1cc2[nH]c(C3CCCCC3)nc2cc1NC(=O)OCCOCC [SB-oli-C8]
[4]; Table B
  Curve: Zonal
  MIC: 6.25

## O=C(Nc1cc2nc(C3CCCCC3)[nH]c2cc1N1CCCC1)OCc1ccccc1 [SBP8B4]
M. tuberculosis
  Efficacy Lung: None
  Efficacy Spleen: None
[4]; Table A
  Curve: Sigmoid
  MIC: 3.13

Source: patent publication US10287617B2, “Methods for in vitro—in vivo efficacy determination” (COLORADO STATE UNIVERSITY RESEARCH FOUNDATION, priority 2014, dated 2019)
